Laboratory results as given in the supplement of paper PMC10307832.

What was measured:
Test in all cases: relative viability (nuclei count vs DMSO), 5 days (fraction); higher = more cells survive
[1] = compound: CC(C)=CC[C@@H](O)C1=CC(=O)c2c(O)ccc(O)c2C1=O [Shikonin] + CC(=O)c1c(C)c2cnc(Nc3ccc(N4CCNCC4)cn3)nc2n(C2CCCC2)c1=O [Palbociclib] (partner 0.5 µM)
Outline: (§1)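 Relative viability equals treated-well nuclei counts divided by vehicle-well nuclei counts. Counts came from 4× images of lung cancer cell lines grown in 1536-well plates for 5 days after pin-tool dosing on the day after seeding. Dosing used one drug alone or a fixed anchor-drug dose plus five library-drug doses (not always all listed) in √10 steps, and values are medians of duplicate plates.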

[2] = compound: CC(C)=CC[C@@H](O)C1=CC(=O)c2c(O)ccc(O)c2C1=O [Shikonin] + Cc1nc(Nc2ncc(C(=O)Nc3c(C)cccc3Cl)s2)cc(N2CCN(CCO)CC2)n1 [Dasatinib] (partner 0.075 µM)
Outline: as §1

[3] = compound: CC(C)=CC[C@@H](O)C1=CC(=O)c2c(O)ccc(O)c2C1=O [Shikonin] + CC1(C)CCC(c2ccc(Cl)cc2)=C(CN2CCN(c3ccc(C(=O)NS(=O)(=O)c4ccc(N[C@H](CCN5CCOCC5)CSc5ccccc5)c(S(=O)(=O)C(F)(F)F)c4)cc3)CC2)C1 [Navitoclax] (partner 0.5 µM)
Outline: as §1

[4] = compound: CC(C)=CC[C@@H](O)C1=CC(=O)c2c(O)ccc(O)c2C1=O [Shikonin] + C[C@]1(O)C[C@@H](c2nc(-c3ccc4ccc(-c5ccccc5)nc4c3)c3c(N)nccn32)C1 [Linsitinib] (partner 1 µM)
Outline: as §1

[5] = compound: CC(C)=CC[C@@H](O)C1=CC(=O)c2c(O)ccc(O)c2C1=O [Shikonin] + CC(=O)Nc1cccc(-n2c(=O)n(C3CC3)c(=O)c3c(Nc4ccc(I)cc4F)n(C)c(=O)c(C)c32)c1 [Trametinib] (partner 0.02 µM)
Outline: as §1

Cell Line | relative viability ([1]; first compound 0.01 µM) | relative viability ([1]; first compound 0.1 µM) | relative viability ([1]; first compound 0.3162 µM) | relative viability ([1]; first compound 1 µM) | relative viability ([2]; first compound 0.01 µM) | relative viability ([2]; first compound 0.1 µM) | relative viability ([2]; first compound 0.3162 µM) | relative viability ([2]; first compound 1 µM) | relative viability ([3]; first compound 0.01 µM) | relative viability ([3]; first compound 0.1 µM) | relative viability ([3]; first compound 0.3162 µM) | relative viability ([3]; first compound 1 µM) | relative viability ([4]; first compound 0.01 µM) | relative viability ([4]; first compound 0.1 µM) | relative viability ([4]; first compound 0.3162 µM) | relative viability ([4]; first compound 1 µM) | relative viability ([5]; first compound 0.01 µM) | relative viability ([5]; first compound 0.1 µM) | relative viability ([5]; first compound 0.3162 µM) | relative viability ([5]; first compound 1 µM)
NCI-H1975 | 0.549 | 0.629 | 0.541 | 0.641 | 0.354 | 0.344 | 0.344 | 0.359 | 1.16 | 1.37 | 1.33 | 0.91 | 1.11 | 0.985 | 1.01 | 0.793 | 0.275 | 0.367 | 0.33 | 0.321
NCI-H1993 | 0.687 | 0.672 | 0.722 | 0.455 | 0.537 | 0.489 | 0.645 | 0.361 | – | 0.814 | 0.936 | 1.01 | – | 0.732 | 0.681 | 0.672 | 0.526 | 0.516 | 0.563 | 0.568
NCI-H2009 | 0.248 | 0.203 | 0.213 | 0.145 | 0.281 | 0.301 | 0.239 | 0.134 | 1.23 | 1.16 | 1.19 | 1.05 | 1.23 | 1.25 | 1.14 | 0.848 | 0.256 | 0.292 | 0.245 | 0.254
NCI-H2023 | 0.437 | 0.363 | 0.411 | 0.401 | 0.674 | 0.646 | 0.626 | 0.611 | 1.03 | 1.06 | 1.03 | 0.97 | 0.655 | 0.831 | 0.687 | 0.629 | 0.546 | 0.534 | 0.64 | 0.56
NCI-H2085 | 0.468 | 0.509 | 0.447 | 0.479 | 0.229 | 0.248 | 0.221 | 0.222 | 1.08 | 1.09 | 1.13 | 0.664 | 0.797 | 0.903 | 0.867 | 0.865 | 0.601 | 0.502 | 0.574 | 0.513
NCI-H2087 | 0.235 | 0.234 | 0.219 | 0.256 | 0.868 | 1.1 | 0.83 | 0.893 | 1.01 | 1.15 | 1.01 | 0.917 | 1.27 | 1.3 | 0.927 | 0.839 | 0.198 | 0.194 | 0.189 | 0.18
NCI-H2126 | 0.362 | 0.408 | 0.379 | 0.349 | 0.599 | 0.595 | 0.656 | 0.685 | 0.84 | 0.86 | 0.879 | 0.864 | 0.71 | 0.814 | 0.752 | 0.699 | 0.549 | 0.553 | 0.607 | 0.571
NCI-H2228 | 0.812 | 0.939 | 0.754 | 0.729 | 0.539 | 0.534 | 0.46 | 0.522 | 0.799 | 0.846 | 0.911 | 0.895 | 0.629 | 0.738 | 0.7 | 0.626 | 0.342 | 0.441 | 0.536 | 0.494
